Data on three compounds can be found in patent publication US6982251B2, “Substituted 2-azetidinones useful as hypocholesterolemic agents” (Schering Corporation, priority 2000, dated 2006).

Series [1] relates to Hyperlipidemic Hamster. Description: In Vivo Assay of Hypolipidemic Agents Using the Hyperlipidemic Hamster. To be noted: oral gavage once daily, 7 days, percent change versus control; for % Reduction in Plasma Cholesterol: cholesterol diet, negative = lowering; for % Reduction in Cholesterol Esters: hepatic cholesterol esters. As for the experimental part:
In Vivo Assay of Hypolipidemic Agents Using the Hyperlipidemic Hamster
Hamsters are separated into groups of six and given a controlled cholesterol diet (Purina Chow #5001 containing 0.5% cholesterol) for seven days. Diet consumption is monitored to determine dietary cholesterol exposure in the presence of test compounds. The animals are dosed with the test compound once daily beginning with the initiation of diet. Dosing is by oral gavage of 0.2 mL of corn oil alone (control group) or solution (or suspension) of test compound in corn oil. All animals moribund or in poor physical condition are euthanized. After seven days, the animals are anesthetized by IM injection of ketamine and sacrificed by decapitation. Blood is collected into Vacutainer™ tubes containing EDTA for plasma total cholesterol and triglyceride analysis and the liver excised for free and esterified cholesterol and triglyceride tissue analysis. Data is reported as percent reduction of plasma cholesterol and hepatic cholesterol esters versus control levels.
Data is reported as percent change (i.e., percent reduction in plasma cholesterol and in hepatic cholesterol esters) versus control, therefore, negative numbers indicate a positive cholesterol-lowering effect.

Series [2] concerns human jejunum microsomes. Description: Incubation with human jejunum microsomes supplemented with UDPGA. To be noted: No hydrolysis; after 2 hr incubation of human jejunum microsomes with 50 μM Compound 6A + UDPGA. It counts as in vitro ADME.
The subject of series [3] is β-Glucuronidase. Description: β-Glucuronidase hydrolysis of the glucuronide mixture obtained from jejunum microsomes. It counts as in vitro ADME. Conditions: for Outcome of β-glucuronidase hydrolysis: after hydrolyzing for 18 h.

Consider `O=C1[C@H](CC[C@H](O)c2ccc(F)cc2)[C@@H](c2ccc(O)cc2)N1c1ccc(F)cc1` [Compound 6A, ezetimibe], for which the “% Reduction in Plasma Cholesterol” value in series [1] (dose 1 mg/kg) is listed as −59%. The “% Reduction in Cholesterol Esters” value in series [1] (dose 1 mg/kg) is recorded as −95%. The “% of Compound 6A” value worked out at 32.06% in series [2]; 72.92% in series [3] (Control: 180 min, No microsomes, No UDPGA); 68.10% in series [3] (hydrolysis time 5 min); 61.88% in series [3] (hydrolysis time 10 min); 66.02% in series [3] (hydrolysis time 20 min); 80.14% in series [3] (hydrolysis time 30 min). Moreover, the “% of Compound 6A” value in series [3] (hydrolysis time 180 min) stood at 84.67%.

Consider `O=C(O)C1OC(O[C@@H](CCC2C(=O)N(c3ccc(F)cc3)C2c2ccc(O)cc2)c2ccc(F)cc2)[C@H](O)[C@@H](O)[C@@H]1O` (some centres unmarked) [Compound III], for which the “% of Compound III (Benzylic Glucuronide)” value was found to be 32.14% in series [2]; 19.30% in series [3] (hydrolysis time 5 min); 18.58% in series [3] (hydrolysis time 10 min); 15.12% in series [3] (hydrolysis time 20 min); 11.22% in series [3] (hydrolysis time 30 min); 6.5% in series [3] (hydrolysis time 180 min). In addition, the “Outcome of β-glucuronidase hydrolysis” value in series [3] was “hydrolyzed to form a single Compound 6A peak”.

For `O=C(O)[C@H]1O[C@@H](Oc2ccc([C@@H]3[C@@H](CC[C@H](O)c4ccc(F)cc4)C(=O)N3c3ccc(F)cc3)cc2)[C@H](O)[C@@H](O)[C@@H]1O` [Example 1], the “% Reduction in Plasma Cholesterol” value in series [1] (dose 3 mg/kg) is −58%. Moreover, in series [1] (dose 3 mg/kg), the “% Reduction in Cholesterol Esters” value was −95%. In addition, the “% of Example 1 (Phenolic Glucuronide)” value is 31.68% in series [2]; 2.23% in series [3] (hydrolysis time 5 min); 1.04% in series [3] (hydrolysis time 10 min); 0.77% in series [3] (hydrolysis time 20 min); 0% in series [3] (hydrolysis time 30 min); 0% in series [3] (hydrolysis time 180 min). The “Relative rate of β-glucuronidase hydrolysis” value in series [3] (5, 10, 20, 30 and 180 min) was “hydrolyzed at a faster rate than Compound III”. In addition, the “Outcome of β-glucuronidase hydrolysis” value in series [3] is reported as “hydrolyzed to form a single Compound 6A peak”.
